Measured values as given in patent US20260083122A1, “METHOD AND AGENT FOR INACTIVATING BACTERIA OR VIRUSES, AND ANTIVIRAL BASE MATERIAL USING SAME” (NISSAN MOTOR CO., LTD., priority 2022, published 2026).
Like-named read-outs stand apart in the source and are kept apart here.

Key:
[1] = Standard redox potential by cyclic voltammetry; assay type: physicochemical; settings: reference electrode Ag/Ag^+, sweep rate 50 mV/s
Description: The standard redox potential is measured by cyclic voltammetry (CV) under a temperature condition of 25° C. At this time, the measurement is performed by a three-electrode method using a glassy carbon electrode (inner diameter: 3 mm) as a working electrode, a reference electrode (Ag/Ag^+), and a counter electrode (platinum wire), and the sweep rate of the potential is 50 mV/s. It is noted that the hydroxyamine forms of the compounds of the present invention are generally unstable and rapidly oxidized into nitroxyl radical forms. Thus, the value of the standard redox potential measured by the above method is the value between the nitroxyl radical form and the oxoammonium form.
In the cyclic voltammogram shown in FIG. 1, the cyclic voltammogram was stably maintained even after repeating 100 or more cycles of measurement, and thus it is observed that the compound of the present aspect has very high durability as an oxidizing agent.

[2] = biological target: T1, S-RBD-His(WT) (SARS-CoV-2 Spike Protein (RBD)) (Severe acute respiratory syndrome coronavirus 2, UniProt P0DTC2)
[3] = tested on: feline coronavirus (FCov (VR-989)); assay type: cell-based; settings: FCoV dilution series incubated with compound at room temperature for 2 hours; CRFK cells, 2 days culture
[4] = tested on: feline coronavirus (FCov (VR-989)); test: Antiviral effect of AZADO (CPE method; incubation at 37° C.); assay type: cell-based
[5] = tested on: feline coronavirus (FCov (VR-989)); assay type: cell-based; settings: for Positive rate (CPE) / Number of wells when CPE is positive: 3 days culture
[6] = tested on: feline coronavirus (FCov (VR-989)); test: Cell viability by WST-8 method in the 25° C. incubation experiment; assay type: cell-based; settings: cells cultured for 3 days after sample addition and medium replacement; virus alone about 50%
[7] = biological target: T2, ovalbumin (OVA) (Gallus gallus, UniProt P01012); test: Degradation activity on ovalbumin (electrophoresis, CBB staining); assay type: biochemical; settings: room temperature for 24 hours
T2 sequence (P01012 1-386): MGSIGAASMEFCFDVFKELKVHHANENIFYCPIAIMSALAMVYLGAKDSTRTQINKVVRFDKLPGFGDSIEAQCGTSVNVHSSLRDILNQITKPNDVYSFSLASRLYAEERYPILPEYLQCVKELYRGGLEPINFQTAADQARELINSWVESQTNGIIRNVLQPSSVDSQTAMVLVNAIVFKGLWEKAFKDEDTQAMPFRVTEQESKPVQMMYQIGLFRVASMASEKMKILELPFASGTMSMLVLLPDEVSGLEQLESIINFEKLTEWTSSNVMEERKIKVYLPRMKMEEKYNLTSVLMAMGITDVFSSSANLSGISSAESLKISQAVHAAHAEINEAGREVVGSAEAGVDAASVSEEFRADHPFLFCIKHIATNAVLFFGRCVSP

[8] = tested on: Escherichia coli (DH5a strain; AMP+); test: Measurement of minimum inhibitory concentration (MIC) against Escherichia coli (colony count); assay type: cell-based; settings: for CFU relative value: Comparative Example (0 mM) is 100
Description: First, Escherichia coli (DH5a strain; AMP+) was cultured with shaking in LB medium for 20 hours, and the obtained culture solution was used as an Escherichia coli stock solution. Then, the Escherichia coli stock solution was diluted 1000 times with PBS to obtain a diluted solution. In addition, this diluted solution was used as a comparative example.
On the other hand, AZADO^+NO3^− was added to the diluted solution obtained above to have a final concentration of 1 μM, 10 μM, 100 μM, 1 mM, or 10 mM, respectively, and the obtained mixture was allowed to stand at room temperature for 15 minutes. Thereafter, for the purpose of deactivating AZADO^+NO3^−, the diluted solution was further diluted 10 times using LB medium as a reaction stop solution. Finally, 25 μL of the reaction solution obtained in this manner was applied to LB agar medium, and cultured at 37° C. for 1 day. Then, the number of colonies on the agar medium after culture was counted, and the colony forming unit (CFU/mL) per mL was calculated. In addition, the “CFU relative value” described in Table 3 is a relative value when the value of the colony forming unit of Comparative Example is 100.

[9] = biological target: T1, S-RBD-His(WT) (SARS-CoV-2 Spike Protein (RBD)); remark: listed apart in the source
[10] = tested on: Escherichia coli ATCC 43895, serotype 0157:H7
[11] = tested on: Staphylococcus aureus subsp. aureus NBRC 12732
[12] = tested on: Penicillium citrinum (NBRC 6352)

## 1,3-dimethyl AZADO
[1]
  standard redox potential (E^0@25° C.) between the nitroxyl radical form and the oxoammonium form: 136 mV

## CC12CC3CC(CC(C3)N1[O])C2 [1-methyl AZADO]
[1]
  standard redox potential (E^0@25° C.) between the nitroxyl radical form and the oxoammonium form: 186 mV

## CC(=O)NC1CC(C)(C)[N+](=O)C(C)(C)C1.F[B-](F)(F)F [4-AcNH-TEMPO^+BF4^−]
[2]
  activity compared among the compounds (peak shift, MFI): almost equally strong
  antiviral activity (MFI) on extended treatment time: showed higher antiviral activity

## [O]N1C2CC3CC(C2)CC1C3 [AZADO, 2-azaadamantane-N-oxyl]
[1]
  standard redox potential (E^0@25° C.) between the nitroxyl radical form and the oxoammonium form: 236 mV

## O=[N+]([O-])[O-].O=[N+]1C2CC3CC(C2)CC1C3 [AZADO-Oxo]
[3]
  cell viability (WST-8 method): recovery of cell viability decreased by virus addition was observed
[4]; AZADO-Oxo 2 mM added, 37° C. 2 hours (no AZADO-Oxo: 5.2)
  logTCID50: 2.4
[4]; AZADO-Oxo 2 mM added, 37° C. 2 hours (no AZADO-Oxo: 142262)
  TCID50: 253
[4]; AZADO-Oxo 2 mM, 37° C. 2 hours
  viral load reduced to (fraction): about 1/1000
[4]; AZADO-Oxo 2 mM, 37° C. 2 hours, 5.2-2.4
  Δ log TCID50: 2.8
[4]; AZADO-Oxo 2 mM, 37° C. 2 hours, viral load 10^−1
  Positive rate (CPE): 0%
[4]; AZADO-Oxo 2 mM, 37° C. 2 hours, viral load 10^−1, 8 wells
  Number of wells when CPE is positive: 0
[4]; AZADO-Oxo 2 mM, 37° C. 2 hours, viral load 10^−2
  Positive rate (CPE): 0%
[4]; AZADO-Oxo 2 mM, 37° C. 2 hours, viral load 10^−2, 8 wells
  Number of wells when CPE is positive: 0
[4]; AZADO-Oxo 2 mM, 37° C. 2 hours, viral load 10^−3
  Positive rate (CPE): 0%
[4]; AZADO-Oxo 2 mM, 37° C. 2 hours, viral load 10^−3, 8 wells
  Number of wells when CPE is positive: 0
[4]; AZADO-Oxo 2 mM, 37° C. 2 hours, viral load 10^−4
  Positive rate (CPE): 0%
[4]; AZADO-Oxo 2 mM, 37° C. 2 hours, viral load 10^−4, 8 wells
  Number of wells when CPE is positive: 0
[4]; AZADO-Oxo 2 mM, 37° C. 2 hours, viral load 10^−5
  Positive rate (CPE): 0%
[4]; AZADO-Oxo 2 mM, 37° C. 2 hours, viral load 10^−5, 7 wells
  Number of wells when CPE is positive: 0
[4]; AZADO-Oxo 2 mM, 37° C. 2 hours, viral load (relative value) 1
  Positive rate (CPE): 0%
[4]; AZADO-Oxo 2 mM, 37° C. 2 hours, viral load (relative value) 1, 7 wells
  Number of wells when CPE is positive: 0
[5]; 48 hours after the addition of the sample solution, 25° C. incubation
  change of cell form to a round shape by virus (microscope): this form change is suppressed
[5]; AZADO-Oxo added, 25° C. incubation (no AZADO-Oxo: 5.2)
  logTCID50: 2.4
[5]; AZADO-Oxo added, 25° C. incubation (no AZADO-Oxo: 142262)
  TCID50: 253
[5]; AZADO-Oxo added, 25° C. incubation, viral load 10^−1
  Positive rate (CPE): 0%
[5]; AZADO-Oxo added, 25° C. incubation, viral load 10^−1, 8 wells
  Number of wells when CPE is positive: 0
[5]; AZADO-Oxo added, 25° C. incubation, viral load 10^−2
  Positive rate (CPE): 0%
[5]; AZADO-Oxo added, 25° C. incubation, viral load 10^−2, 8 wells
  Number of wells when CPE is positive: 0
[5]; AZADO-Oxo added, 25° C. incubation, viral load 10^−3
  Positive rate (CPE): 0%
[5]; AZADO-Oxo added, 25° C. incubation, viral load 10^−3, 8 wells
  Number of wells when CPE is positive: 0
[5]; AZADO-Oxo added, 25° C. incubation, viral load 10^−4
  Positive rate (CPE): 0%
[5]; AZADO-Oxo added, 25° C. incubation, viral load 10^−4, 8 wells
  Number of wells when CPE is positive: 0
[5]; AZADO-Oxo added, 25° C. incubation, viral load 10^−5
  Positive rate (CPE): 0%
[5]; AZADO-Oxo added, 25° C. incubation, viral load 10^−5, 7 wells
  Number of wells when CPE is positive: 0
[5]; AZADO-Oxo added, 25° C. incubation, viral load (relative value) 1
  Positive rate (CPE): 0%
[5]; AZADO-Oxo added, 25° C. incubation, viral load (relative value) 1, 7 wells
  Number of wells when CPE is positive: 0
[6]
  cell viability (WST-8 method): recovered the cell viability to the same level as the blank
[7]; 1 mg catalyst support or 3 μL of 100 mM AZADO-Oxo
  band of OVA in supernatant (CBB staining): almost eliminated
[7]; 2.5 μL of 100 mM AZADO-Oxo, with or without 2.5 μL of 100 mM cocatalyst
  band of OVA in supernatant (CBB staining), unsupported AZADO: elimination of a band of OVA (protein degradation activity) was confirmed
[8]; Escherichia coli, 15 minutes contact
  final concentration at which a remarkable inactivation effect was observed: ≥ 100 PM
[8]; final concentration 0.001 mM (0 mM: 1.21 × 10^8)
  colony forming unit: 1.28 × 10^8 CFU/mL
[8]; final concentration 0.001 mM
  CFU relative value: 105
[8]; final concentration 0.001 mM, room temperature 15 minutes (0 mM: 303)
  Number of colonies: 319
[8]; final concentration 0.01 mM
  colony forming unit: 1.25 × 10^8 CFU/mL
  CFU relative value: 103
[8]; final concentration 0.01 mM, room temperature 15 minutes
  Number of colonies: 313
[8]; final concentration 0.1 mM
  colony forming unit: 6.04 × 10^7 CFU/mL
  CFU relative value: 50
[8]; final concentration 0.1 mM, room temperature 15 minutes
  Number of colonies: 151
[8]; final concentration 1 mM
  colony forming unit: 0 CFU/mL
  CFU relative value: 0
[8]; final concentration 1 mM or more
  sterilization effect: ≥ 99%
[8]; final concentration 1 mM, room temperature 15 minutes
  Number of colonies: 0
[8]; final concentration 10 mM
  colony forming unit: 0 CFU/mL
  CFU relative value: 0
[8]; final concentration 10 mM, room temperature 15 minutes
  Number of colonies: 0
[9]
  shift of fluorescence peak (binding amount between spike protein and ACE2): shifted to the left depending on the amount of AZADO-Oxo added

## F[B-](F)(F)F.O=[N+]1C2CC3CC(C2)CC1C3 [AZADO^+BF4^−]
[2]
  activity compared among the compounds (peak shift, MFI): almost equally strong
  antiviral activity (MFI) on extended treatment time: showed higher antiviral activity

## CC1(C)CCCC(C)(C)N1[O] [TEMPO, 2,2,6,6-tetramethylpiperidine-N-oxyl]
[1]
  standard redox potential (E^0@25° C.) between the nitroxyl radical form and the oxoammonium form: 294 mV

## O=[N+]([O-])[O-].[Ag+] [silver nitrate, reference compound]
[3]
  cell viability (WST-8 method): such a phenomenon was not observed

## copper(II) nitrate
[10]
  viable cell ratio: did not decrease to 0%
[11]
  viable cell ratio: did not decrease after 5 minutes from the addition
[12]
  viable cell ratio: started to increase after 5 minutes from the addition
